Results: US4254278A, “1-Descarboxy-1-ketoester (ketoacid)-prostaglandins” (American Cyanamid Company, priority 1979, dated 1981)

How the values were obtained:
Format in all cases: in vivo, guinea pigs
[1] = tested on: bronchospasms elicited by 5-hydroxytryptamine; experiment: Bronchodilator activity against 5-hydroxytryptamine-induced bronchospasm (Konzett procedure); settings: guinea pig; 5-hydroxytryptamine spasmogen; three logarithmic cumulative intravenous doses
Procedure: (§1) The compounds of this invention are useful as bronchodilators for the treatment of asthma and chronic bronchitis. Bronchodilator activity is determined in guinea pigs against bronchospasms elicited by intravenous injections of 5-hydroxytryptamine, histamine or acetylcholine by the Konzett procedure. [See J. Lulling, P. Lievens, F. El Sayed and J. Prignot, Arzneimittel-Forschung, 18, 955 (1968).]
(§2) In Table which follows bronchodilator activity for representative compounds of this invention against one or more of three spasmogenic agents is expressed as an ED50 determined from the results obtained with three logarithmic cummulative intravenous doses. In this assay, these compounds of this invention provide an effect of longer duration than does natural 1-PGE1 or 1-PGE2.

[2] = tested on: bronchospasms elicited by histamine; experiment: Bronchodilator activity against histamine-induced bronchospasm (Konzett procedure); settings: guinea pig; histamine spasmogen; three logarithmic cumulative intravenous doses
Procedure: as §1, §2

[3] = tested on: bronchospasms elicited by acetylcholine; experiment: Bronchodilator activity against acetylcholine-induced bronchospasm (Konzett procedure); settings: guinea pig; acetylcholine spasmogen; three logarithmic cumulative intravenous doses
Procedure: as §1, §2

Structure (SMILES) | ED50 5HT [1] [Mg/kg × 10^-6] | ED50 HIST. [2] [Mg/kg × 10^-6] | ED50 ACH [3] [Mg/kg × 10^-6]
CCCCCC(C)(O)/C=C/C1C(O)CC(=O)C1CCCCCCC(=O)C(=O)OCC (stereo not drawn) [d1-1,9-dioxo-1-carbethoxy-11α,15-dihydroxy-15-methyl-13-trans-prostene] | 4220 | 6050 | > 3.2
CCCCC(C)(O)C/C=C/C1C(O)CC(=O)C1/C=C\CCCCC(=O)C(=O)OCC (stereo not drawn) [d1-1,9-dioxo-1-carbethoxy-11α,16-dihydroxy-16-methyl-6-cis-13-trans-prostadiene] | 9510 | 9310 | 5920
